The experiment has as its target Serine/threonine-protein kinase Chk2 (Homo sapiens, UniProt O96017). In words: Inhibition of recombinant human Chk2 kinase.

Chain of Serine/threonine-protein kinase Chk2 (O96017 whole entry): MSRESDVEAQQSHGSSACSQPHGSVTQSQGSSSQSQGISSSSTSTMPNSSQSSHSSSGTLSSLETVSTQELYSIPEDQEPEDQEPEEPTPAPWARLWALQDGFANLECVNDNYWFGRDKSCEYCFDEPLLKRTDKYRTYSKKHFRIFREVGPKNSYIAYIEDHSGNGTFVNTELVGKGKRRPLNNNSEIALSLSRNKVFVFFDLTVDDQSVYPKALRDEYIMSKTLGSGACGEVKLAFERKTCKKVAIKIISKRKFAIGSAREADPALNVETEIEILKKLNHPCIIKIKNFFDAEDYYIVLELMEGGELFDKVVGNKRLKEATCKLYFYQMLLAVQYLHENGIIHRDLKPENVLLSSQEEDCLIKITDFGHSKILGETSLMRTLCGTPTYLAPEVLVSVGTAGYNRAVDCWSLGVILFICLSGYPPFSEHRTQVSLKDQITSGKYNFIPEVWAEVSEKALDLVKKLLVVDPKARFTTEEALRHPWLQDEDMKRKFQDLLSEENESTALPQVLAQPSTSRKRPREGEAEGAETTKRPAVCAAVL

`CN(C)C(=O)c1ccc2[nH]c(-c3ccc(Oc4ccccc4)cc3)nc2c1`: the IC50 was > 10 µM.
For `NC(=O)c1ccc2nc(-c3ccc(C(=O)Nc4ccc(Cl)c(Cl)c4)cc3)[nH]c2c1`, the concentration for half-maximal inhibition (IC50) was > 10 µM.
